In PubChem BioAssay AID1648 (Sanford-Burnham Center for Chemical Genomics, 2009):
The source made the active and inactive calls. No rule for the calls is given here.

What follows are molecules tested against Serine/threonine-protein kinase mTOR (Homo sapiens) (UniProt P42345) (assay: mTOR FRB domain ligand binding – biophysical, NMR (AID 1648)). Settings: NMR binding to FRB domain, chemical shift.
Sequence of Serine/threonine-protein kinase mTOR (Homo sapiens) (P42345 2015-2114): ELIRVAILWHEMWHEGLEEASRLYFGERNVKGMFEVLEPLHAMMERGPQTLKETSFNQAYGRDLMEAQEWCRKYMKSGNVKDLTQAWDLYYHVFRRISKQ

Structure (SMILES) | Kd
Cc1cc(C)c2nncn2n1 | > 4 mM (inactive)
O=C(NCc1ccccn1)c1ccc(Br)s1 | > 4 mM (inactive)
c1coc(CNc2ncnc3nc[nH]c23)c1 | > 4 mM (inactive)
O=C(Nc1ccon1)c1csc2c1CCCC2 | > 4 mM (inactive)
O=S(=O)(N1CCCCC1)n1nnc2ccccc21 | > 4 mM (inactive)
C=CCNC(=O)c1ccc(Cl)cc1Cl | > 4 mM (inactive)
CN(C)C(=S)Nc1nc2ccccc2s1 | > 4 mM (inactive)
O=c1[nH]cnc2nc[nH]c12 | > 4 mM (inactive)
c1ccc(SCc2nc(-c3ccccn3)no2)cc1 | > 4 mM (inactive)
COc1ccccc1NC(=O)c1ccc(C)s1 | > 4 mM (inactive)
COc1cccc(OC)c1C(=O)N1CCOCC1 | > 4 mM (inactive)
CC1=CC(=O)NC2C=CC=CC12 (stereo unspecified) | > 4 mM (inactive)
COc1cccc(/C=C/C(=O)O)c1C(C)C | > 4 mM (inactive)
Cn1cnc2c(=O)[nH]cc([N+](=O)[O-])c21 | > 4 mM (inactive)
OC1CCCN(Cc2ccccc2)C1 (stereo unspecified) | > 4 mM (inactive)
O=CN1CCN(C(=O)c2ccco2)CC1 | > 4 mM (inactive)
O=C1C=CC(=O)N1c1ccc(N2CCOCC2)cc1 | > 4 mM (inactive)
Cc1cc(C(=O)Nc2ccon2)cs1 | > 4 mM (inactive)
CC(=O)Nc1cccc(Cn2cccn2)c1 | > 4 mM (inactive)
Cc1nc2ccc(C(=O)N3CCSCC3)cc2s1 | > 4 mM (inactive)
CC[C@]12CCCN3CCc4c(n(c5ccccc45)[C@](O)(C(=O)OC)C1)[C@@H]32 | > 4 mM (inactive)
O=C(NC1CCS(=O)(=O)C1)C1CCCCC1 (stereo unspecified) | > 4 mM (inactive)
Cc1cc(SCCF)n2ncnc2n1 | > 4 mM (inactive)
N#Cc1ccccc1CSc1ccccn1 | > 4 mM (inactive)

Structure (SMILES) | Kd
Cc1nnc(SCc2cccs2)[nH]c1=O | > 4 mM (inactive)
COc1cc2c3cc1Oc1cc(ccc1O)C[C@@H]1c4c(cc(OC)c(O)c4Oc4ccc(cc4)C[C@@H]3N(C)CC2)CC[N+]1(C)C | > 4 mM (inactive)
Cc1ccccc1-n1c(N)cc(=O)[nH]c1=S | > 4 mM (inactive)
CC1(C(=O)O)CC2C=CC1C2 (stereo unspecified) | > 4 mM (inactive)
CCOc1ccc(N2C(=O)CCC2=O)cc1 | > 4 mM (inactive)
Cn1c(CO)nc2ccccc21 | > 4 mM (inactive)
O=C1NCCCC1C(=O)N/N=C/c1ccccc1 (stereo unspecified) | > 4 mM (inactive)
O=C(Nc1c[nH]c(=O)[nH]c1=O)c1cccs1 | > 4 mM (inactive)
Cc1noc(C)c1C(=O)Nc1cccnc1 | > 4 mM (inactive)
C=C1CCC(=O)C(C)CCC2C1CC2(C)C (stereo unspecified) | > 4 mM (inactive)
CCC(C)OC1CCS(=O)(=O)C1 (stereo unspecified) | > 4 mM (inactive)
COC(=O)[C@H]1[C@H]2C[C@H]3c4[nH]c5ccccc5c4CCN3C[C@H]2CC[C@@H]1O | > 4 mM (inactive)
CC(=O)Nc1ccc(NC(=O)C2CC2)cc1 | > 4 mM (inactive)
c1ccc(SCc2nc(-c3cccnc3)no2)cc1 | > 4 mM (inactive)
Cc1occc1C(=O)N1CCC2(CC1)OCCO2 | > 4 mM (inactive)
Nc1ccccc1C(=O)N1CCOCC1 | > 4 mM (inactive)
O=C(O)C1CC(=O)N(Cc2cccs2)C1 (stereo unspecified) | > 4 mM (inactive)
COc1cc2c(cc1OC)[C@@H]1C(=O)c3ccc4c(c3O[C@@H]1CO2)CC(C(C)C)O4 (stereo partly specified) | > 4 mM (inactive)
Cc1nn(C)c(Cl)c1C(O)c1c(C)nn(C)c1Cl | > 4 mM (inactive)
CC(C)(O)CC[C@@H](O)[C@](C)(O)C1CC[C@@]2(O)C3=CC(=O)C4C[C@@H](O)[C@@H](O)C[C@]4(C)C3CC[C@]12C (stereo partly specified) | > 4 mM (inactive)
O=C(O)/C=C(\CC(=O)O)C(=O)O | > 4 mM (inactive)
C=C1C2CC[C@H]3[C@]4(C)C[C@H](OC5OC(CO)C(OS(=O)(=O)O)C(OS(=O)(=O)O)C5OC(=O)CC(C)C)C[C@@H](C(=O)O)[C@H]4CC[C@]3(C2)[C@H]1O (stereo partly specified) | > 4 mM (inactive)
C[C@@H]1CC[C@@]2(OC1)O[C@H]1CC3C4CC[C@H]5C[C@@H](O)CC[C@]5(C)C4CC[C@]3(C)[C@H]1[C@@H]2C (stereo partly specified) | > 4 mM (inactive)
CC(=O)N1CCN(c2ccc(O)cc2)CC1 | > 4 mM (inactive)

Structure (SMILES) | Kd
O=c1c(-c2ccccc2)coc2cc(O)cc(O)c12 | > 4 mM (inactive)
CC1=C(/C=C/C(C)=C/C=C/C(C)=C/C=C/C=C(C)/C=C/C=C(C)/C=C/C(=O)[C@]2(C)C[C@@H](O)CC2(C)C)C(C)(C)C[C@H](O)C1 | > 4 mM (inactive)
NN1C(=O)/C(=C/c2ccc(O)c(O)c2)SC1=S | > 4 mM (inactive)
COc1ccc(-c2coc3c(OC)c(OC)cc(OC)c3c2=O)cc1 | > 4 mM (inactive)
NCc1c[nH]c2ccccc12 | > 4 mM (inactive)
Nc1scc[n+]1CC(=O)[O-] | > 4 mM (inactive)
N#Cc1c(N)c(C(=O)c2ccccc2)n2c1CCC2 | > 4 mM (inactive)
COc1cc(C2NC(=S)NC(C)=C2C(C)=O)ccc1O (stereo unspecified) | > 4 mM (inactive)
S=c1oc(-c2ccncc2)nn1CCc1ccncc1 | > 4 mM (inactive)
O=C(Nn1c(=S)[nH]c2ccccc2c1=O)c1ccncc1 | > 4 mM (inactive)
CO[C@H]1[C@@H](O)[C@@H](C)O[C@H](O[C@H]2CCC3(C)C4CCC5(C)[C@@H](C6=CC(=O)OC6)CC[C@]5(O)[C@@H]4CC[C@]3(O)C2)[C@@H]1O (stereo partly specified) | > 4 mM (inactive)
CCN1CCC(NC2CCCCNC2=O)CC1 (stereo unspecified) | > 4 mM (inactive)
Nc1ccc(CN2CCS(=O)(=O)CC2)cc1 | > 4 mM (inactive)
C/C=C/COc1nc2c(c(=O)n(C)c(=O)n2C)n1C | > 4 mM (inactive)
COc1cccc(NC(=O)c2nc3ncccn3n2)c1 | > 4 mM (inactive)
CC12CCC3C(CC3(C)C)C(C)(CCC1=O)O2 (stereo unspecified) | > 4 mM (inactive)
O=C(O)C1CC(=O)N(Cc2ccc(F)cc2)C1 (stereo unspecified) | > 4 mM (inactive)
Cc1ccccc1NC(=O)/C=C\C(N)=O | > 4 mM (inactive)
CC(C)(C)NC(=O)N1CCC(C(=O)O)CC1 | > 4 mM (inactive)
CC(C)=CCc1c2c(c(O)c3c(=O)c(O)c(-c4ccccc4)oc13)C=CC(C)(C)O2 | > 4 mM (inactive)
CS(C)=C1C(=O)NC(=O)N(c2ccccc2)C1=O | > 4 mM (inactive)
O=C1CN(C(=O)CN2CCOCC2)c2ccccc2N1 | > 4 mM (inactive)
OCC1CCN(Cc2ccccc2)CC1 | > 4 mM (inactive)
S=C(NC1=NCCS1)Nc1ccccc1 | > 4 mM (inactive)

Structure (SMILES) | Kd
NC(=O)c1cc(N)cc(C(N)=O)c1 | > 4 mM (inactive)
Cn1cnnc1Sc1ncnc(N)c1[N+](=O)[O-] | > 4 mM (inactive)
COC(=O)c1ccc(NC(=O)CC2NCCNC2=O)cc1 (stereo unspecified) | > 4 mM (inactive)
N#CCCn1ccnc1-c1ccccc1 | > 4 mM (inactive)
OCc1csc(-c2ccccc2)n1 | > 4 mM (inactive)
OCC1CCN(c2ncccn2)CC1 | > 4 mM (inactive)
COc1ccc(Cl)c(S(=O)(=O)N2CCCC2)c1 | > 4 mM (inactive)
CN(C)c1ccc(NC(=O)CC(C(=O)O)N(C)C)cc1 (stereo unspecified) | > 4 mM (inactive)
Nc1nnc(Cc2ccc(Cl)cc2)s1 | > 4 mM (inactive)
COc1cc2c(cc1O)CCNC2C (stereo unspecified) | > 4 mM (inactive)
Nc1ncnc2c1ncn2CCN1CCCCC1 | > 4 mM (inactive)
COc1cc(C/C=C/c2ccccc2)c(OC)cc1O | > 4 mM (inactive)
CN1C2CC3C[C@H]1C(O3)C2O (stereo partly specified) | > 4 mM (inactive)
COc1ccc(S(=O)(=O)NCCO)cc1 | > 4 mM (inactive)
Cc1ccccc1CSc1nncn1N | > 4 mM (inactive)
O=C1CS/C(=N/N=C/c2cccs2)N1 | > 4 mM (inactive)
CNC(=O)Cn1c(=O)n(C)c2ccccc21 | > 4 mM (inactive)
CN(c1ccccc1C(=O)N1CCCC1)S(C)(=O)=O | > 4 mM (inactive)
O=C(CC1Nc2ccccc2NC1=O)Nc1ccc(O)cc1 (stereo unspecified) | > 4 mM (inactive)
O=C1CSC2=NCCCN12 | > 4 mM (inactive)
CCSc1nc(=S)n(CC)c(C)c1C(C)=O | > 4 mM (inactive)
O=C1CCCC(=O)N1c1ccc(O)cc1 | > 4 mM (inactive)
O=[N+]([O-])c1ccc2c(c1)N([O-])C1(CCCCC1)[N+]2=O | > 4 mM (inactive)
Cc1ccccc1NC(=O)CC1SC(N)=NC1=O (stereo unspecified) | > 4 mM (inactive)

Structure (SMILES) | Kd
Cc1ccc(-n2[nH]c(C)cc2=O)cc1 | > 4 mM (inactive)
O=C(Nc1ccccc1[N+](=O)[O-])c1ccc(=O)[nH]n1 | > 4 mM (inactive)
COc1ccc2[nH]cc(CN(C)C)c2c1 | > 4 mM (inactive)
C=CCSc1[nH]c(=O)cc(C)c1C(N)=O | > 4 mM (inactive)
CCOC(=O)Cn1cnc2sc3c(c2c1=O)CCC3 | > 4 mM (inactive)
COc1cc([C@@H]2c3cc4c(c(O)c3C[C@H]3COC(=O)[C@@H]32)OCO4)cc(OC)c1OC | > 4 mM (inactive)
O=C1CC(=O)N(c2cccc(Cl)c2)N1 | > 4 mM (inactive)
CC(C)=CCC[C@](C)(O)C1CC=C(C)CC1 (stereo partly specified) | > 4 mM (inactive)
Oc1ccc(-c2n[nH]c(=S)n2Cc2ccco2)cc1 | > 4 mM (inactive)
S=C(NCC1CCCO1)NC1CC1 (stereo unspecified) | > 4 mM (inactive)
CCOC(=O)CN1C(=O)c2ccccc2C1=O | > 4 mM (inactive)
NC(=O)CSc1ccc2nnc(-c3cccs3)n2n1 | > 4 mM (inactive)
Nc1ccc2[nH]ncc2c1 | > 4 mM (inactive)
C=C[C@@H](C1=CC(=O)C(OC)=C(OC)C1=O)c1ccccc1 | > 4 mM (inactive)
Nc1ncnc2c1ncn2C1O[C@H](COP(=O)(O)O)[C@@H](O)[C@H]1O (stereo partly specified) | > 4 mM (inactive)
Nc1cccc(S(=O)(=O)N2CCCC2)c1 | > 4 mM (inactive)
C=C[C@@](C)(O)CCC1C(=C)C[C@H](O)C2C(C)(C)CCCC12C (stereo partly specified) | > 4 mM (inactive)
COc1ccccc1-c1nc(-c2ccc(C)nc2OC)no1 | > 4 mM (inactive)
C=CCNC(=O)c1nn2cccnc2c1Cl | > 4 mM (inactive)
O=C(O)c1cnc2sc3ccccc3n2c1=O | > 4 mM (inactive)
